Measured values reported in article PMC11571207, “Stereorandomized Oncocins with Preserved Ribosome Binding and Antibacterial Activity” (Journal of Medicinal Chemistry, 2024).
≈ marks a conversion by molar mass, not a printed value. Where “and” joins values, the source holds several entries; their conditions need not be identical. Equal values may be shown once. Entries after “also recorded” stand apart in the source; their conditions may differ. Read-outs that look alike come from different tables or passages of the source. Non-standard residues stand in square brackets, D forms with d. Residues, ends and D or L forms follow the SMILES beside them. No end group written: not given here.

Assays:
[1] = system: P. aeruginosa PA14 4.13 (phoQ); experiment: microbe, parasite or virus in culture; conditions: Pseudomonas aeruginosa
[2] = 25% (v/v) human serum in 0.1 M TRIS buffer pH 7.4, peptide 200 μM, 37 °C, 0/24/48/72 h, LC-MS UV trace vs 4-hydroxybenzoic acid internal standard, n = 3
Protocol: Human serum was diluted in 0.1 M filtered TRIS buffer pH 7.4 (50%, 1:1, v/v). Selected peptides were diluted in 0.1 M filtered TRIS buffer pH 7.4 to a concentration of 400 μM and 0.1 mg/mL 4- hydroxybenzoic acid was added as internal standard. Aliquots of peptide solution (300 μL) were added to aliquots of serum (300 μL) in sterile 1.5 mL Eppendorf tubes, to reach a peptide concentration of 200 μM and 25% (v/v) human serum during the assay. Samples, in triplicate, were incubated at 37 °C under gentle stirri ng (200 rpm). At different time points (0, 24, 48 and 72 hours), 100 μL of each sample was collected and quenched by precipitating serum proteins through the addition of (0.1 M) ZnSO4·7 H2O / ACN (1:1) (0.1 M, 100 μL) and cooling in ice bath for 10 minutes. Protein precipitates were pelleted under centrifugation (5 min at 14’000 rpm) and the supernatants were analysed by LC-MS. Peaks corresponding to the internal standard and the undegraded peptides were integrated from the area under the curves (AUC) of UV traces, with the ratio peptide/standard at t = 0 h as 100%.
Figure S7. Serum stability assay of the respective compound (200 μM), incubated with human serum (25% in TRIS buffer, 0.1 M, pH 7.4) at 37 °C. Aliquots were taken at different time (0 / 24 / 48 and 72 h). Undegraded peptide values determined by RP -HPLC analysis usi ng hydroxybenzoic acid as internal standard. Measured in triplicates and the data represent mean ± SD, n […]
(1 picture or pasted object on this page, not shown here)

DnaK = molecular target: T1, DnaK (Escherichia coli, UniProt P0A6Y8); experiment: Microscale thermophoresis with His-Tag-labeled DnaK; assay type: binding; conditions: MST buffer
T1 construct: made in house; host or cells: E. coli BL21(DE3), pET28a T7 vector (synthetic gene, GenScript)
Protocol: A plasmid containing the DnaK insert was designed in SnapGene and ordered commercially as a synthetic gene (Figure S11). Chemically competent BL21(DE3) cells were transformed with the plasmid vector (GenScript), and positive transformants were selected on LB + Kanamycin agar. For protein expression, 6 mL of overnight cultures inoculated with a single colony were used to initiate shake-flask expression at 300 mL scale in LB + kanamycin ([…]) + 1 mM IPTG. The flasks were cultured overnight at 220 rpm, 37 °C, and the bacteria were harvested by centrifugation the next day. Pelleted cells were stored at −20 °C. […] The collected fractions were analyzed by SDS-PAGE. […]
DnaK labeling was performed using the Nanotemper Monolith His-Tag Labeling Kit RED-tris-NTA Second Generation. […] The fluorescence variation between the samples was measured in 4 replicates with the Monolith NT.115 device in Monolith NT.115 Premium Capillaries and analyzed with the MOcontrol software (Figures S13–S15).
To each sample, 10 μL of 40 nM His-Tag-labeled DnaK was added, resulting in a final volume of 20 μL per sample. The fluorescence variations between the samples were measured by using the Monolith NT.115 device with Monolith NT.115 Premium Capillaries. The data were analyzed with MOcontrol software to determine the binding affinity between L-onc and His-Tag-labeled DnaK (Figure S16).

T1 sequence (P0A6Y8 whole entry, species assumed): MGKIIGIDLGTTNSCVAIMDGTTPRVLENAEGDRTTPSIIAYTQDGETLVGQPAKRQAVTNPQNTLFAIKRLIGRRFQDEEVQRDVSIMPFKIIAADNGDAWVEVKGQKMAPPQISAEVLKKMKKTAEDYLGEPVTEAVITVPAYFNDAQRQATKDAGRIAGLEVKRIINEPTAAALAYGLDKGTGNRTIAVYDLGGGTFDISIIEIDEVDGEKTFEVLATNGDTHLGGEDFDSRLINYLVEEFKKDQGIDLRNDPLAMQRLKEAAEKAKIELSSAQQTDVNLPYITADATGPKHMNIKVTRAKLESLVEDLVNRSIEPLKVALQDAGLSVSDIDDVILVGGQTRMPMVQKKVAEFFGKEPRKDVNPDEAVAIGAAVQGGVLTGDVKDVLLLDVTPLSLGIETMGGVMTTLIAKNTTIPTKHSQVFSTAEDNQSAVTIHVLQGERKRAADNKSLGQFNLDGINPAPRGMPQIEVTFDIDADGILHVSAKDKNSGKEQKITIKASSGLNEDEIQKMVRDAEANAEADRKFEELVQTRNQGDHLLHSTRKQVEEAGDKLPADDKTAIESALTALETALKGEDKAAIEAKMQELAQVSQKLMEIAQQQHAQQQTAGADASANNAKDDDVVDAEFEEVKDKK

CC[C@H]1OC(=O)[C@H](C)[C@@H](O[C@H]2C[C@@](C)(OC)[C@@H](O)[C@H](C)O2)[C@H](C)[C@@H](O[C@@H]2O[C@H](C)C[C@H](N(C)C)[C@H]2O)[C@](C)(O)C[C@@H](C)CN(C)[C@H](C)[C@@H](O)[C@]1(C)O [AZM, azithromycin, reference compound]
MIC ([1]; PA14, pH 7.4, read-out: MIC P. aeruginosa PA14 4.13 (phoQ), 12.5% MHB, polymyxin B resistant strain, 12.5% MHB pH 7.4, 16–20 h at 37 °C): 16 to 32 µg/mL (≈ 21.4 to 42.7 µM) | MIC ([1]; PA14, pH 7.4, read-out: MIC P. aeruginosa PA14 4.13, supplement CSV, 12.5% MH pH 7.4): 16 to 32 µg/mL (≈ 21.4 to 42.7 µM)

CC[C@H](C)[C@H](NC(=O)[C@@H](CCCNC(=N)N)NC(=O)[C@H](CCCNC(=N)N)NC(=O)[C@@H]1CCCN1C(=O)[C@@H]1CCCN1C(=O)[C@H](CCCNC(=N)N)NC(=O)[C@@H]1CCCN1C(=O)[C@H](CCCNC(=N)N)NC(=O)[C@@H]1CCCN1C(=O)[C@H](CC(C)C)NC(=O)[C@H](Cc1ccc(O)cc1)NC(=O)[C@@H]1CCCN1C(=O)[C@@H]1CCCN1C(=O)[C@H](CCCCN)NC(=O)[C@H](CC(=O)O)NC(=O)[C@@H](N)C(C)C)C(=O)N[C@@H](Cc1ccc(O)cc1)C(=O)N[C@@H](CC(N)=O)C(=O)N[C@H](CCCNC(=N)N)C(N)=O [Onc112, reference compound] (H-VDKPPYLPRPRPPR[dR]IYN[dR]-NH2)
Serum stability (undegraded peptide) [2]: essentially stable to degradation over 24 h

VDKPPYLPRPRPPRRIYNR [sr-Onc] (VDKPPYLPRPRPPRRIYNR-NH2; also: all 19 residues stereorandomized (1:1 L/D mixture)) [fully stereorandomized oncocin]
DnaK binding check (DnaK; 20 nM His-Tag-labeled DnaK, 50 μM peptide, 4 replicates): negative for binding; also recorded: no detectable binding to DnaK

VDKPPYLPRPRPPRRIYNR-NH2 [L-Onc, reference compound]
Kd (DnaK; 2-fold serial dilution from 100 μM, His-Tag-labeled DnaK, read-out: KD, apparent binding to DnaK): 29.8 µM and ~30 µM | Serum stability (undegraded peptide) [2]: rapidly degraded
